# Assay results taken from patent publication US11517540B2, “Restoring physiology in iron-deficient organisms using small molecules” (The Board of Trustees of the University of Illinois, priority 2015, dated 2022).
# “Also recorded” adds a separate entry of the source. Where no end group is shown, it is not given here.
# What was measured:
# DMT1-deficient MEL cells [1] = assay: Differentiation / hemoglobinization of DMT1-deficient MEL cells (o-dianisidine staining); settings: for differentiation (staining of hemoglobinized cells with o-dianisidine): 2% DMSO induction
# Source text: To gain a better fundamental understanding of this phenomenon, DS19 murine erythroleukemia (MEL) cells were used. These terminally differentiate toward developing erythrocytes after induction with 2% DMSO leading to increased iron uptake and globin expression. DMT1-deficient cell lines through shRNA knockdown were developed (FIG. 7, panel (B)).
# [2] = system: Reticulocytes isolated ex vivo from DMT1-deficient Belgrade (b/b) rats; assay: 59Fe incorporation into heme in reticulocytes isolated ex vivo; settings: for 59Fe incorporation into heme: plasma spiked with 59Fe-transferrin, b/b reticulocytes
# Procedure: The capacity for hinokitiol to restore hemoglobinization in DMT1-deficient erythroid progenitors was evaluated. Reticulocytes isolated ex vivo from DMT1-deficient Belgrade (b/b) and healthy (+/b) rats were incubated in plasma spiked with ^59Fe-transferrin to assess hinokitiol's ability to promote iron utilization.
# The use of these MEL cells allowed us to test the hypothesis that hinokitiol autonomously transports iron down pre-existing concentration gradients. To do this, we utilized live cell fluorescence imaging with iron-specific dyes to visualize intracellular iron distribution.
# [3] = Release of iron from POPC liposomes
# Source text: (§1) FIG. 5 illustrates the biophysical characterization of hinokitiol.
# [4] = system: DMT1-deficient Belgrade (b/b) rats; assay: Chronic exposure of Belgrade (b/b) rats in rat chow: hematocrit; format: in vivo; settings: for hematocrit after one month of treatment: 0.2% in rat chow (˜100 mg/kg/day)
# Source text: (§2) Belgrade (b/b) rats (FIG. 3, panel (A)) are the leading model of the disease and display severe hematological defects such as decreased hematocrit values amongst other markers.
# [5] = Iron binding (UV trace after addition of iron); format: physicochemical
# Source text: as §1
# [6] = system: DMT1-deficient Caco-2 epithelia monolayers; assay: 55Fe uptake and transepithelial transport in DMT1-deficient Caco-2 monolayers; settings: for 55Fe uptake into cells / transepithelial 55Fe transport: shDMT1 monolayers, apical addition
# Source text: (§3) In normal epithelia, iron brought into the cell via apical DMT1 transporters is stored in cytosolic ferritin clusters and directionally exported through the basolateral membrane by FPN1. Transepithelial iron flux via this network of proteins is regulated by the iron response element which is sensitive to intracellular iron concentrations.
# [7] = system: Mitoferrin-deficient MEL cell lines; assay: Hemoglobinization and 55Fe use in mitoferrin-deficient MEL cells; format: cell-based, murine; settings: for hemoglobinization: conditions identical to DMT1-deficient cells
# hino-rescued yeast = assay: Sensitivity of hinokitiol-rescued yeast to chemical inhibitors; format: cell-based, S. cerevisiae; settings: ebselen: Pma1; bafilomycin: V-ATPase; caspofungin: off-pathway cell wall biosynthesis
# [8] = Source text: as §1
# TMEM14CΔ = assay: Hemoglobinization in heme biosynthesis-deficient (TMEM14CΔ) cells; format: cell-based
# Permeability assays = format: in vitro ADME; settings: not told
# Source text: This was sustained for >2 months.
# [9] = Toxicity and pharmacokinetic half-life in healthy rats
# Source text: as §2
# DMT1-deficient MEL cells [10] = assay: Live cell fluorescence imaging of intracellular iron distribution with iron-specific dyes; format: cell-based, murine
# [11] = system: S. cerevisiae missing the iron transporting complex Fet3Ftr1 (fet3Δftr1Δ); assay: Modified functional complementation: growth rescue of iron transporter-deficient yeast; format: cell-based
# Procedure: To identify small molecules which perform such transport, a modified functional complementation experiment was performed. […] Growth restoration is not due to generic hormetic effects (FIG. 4, panel (D)) and can be sustained >40 days with continued reliance on hinokitiol (FIG. 4, panel (E)).
# J774 macrophages = format: cell-based
# Procedure: To test the capacity for hinokitiol to restore iron release in FPN1 deficiencies, J774 macrophages were utilized. J774 cells with ^55Fe-transferrin were incubated in the absence or presence of hepcidin. Hepcidin is a key iron regulator, down-regulating FPN1 by promoting its degradation.
# FPN1 = assay: 55Fe uptake and transepithelial transport in control Caco-2 monolayers with FPN1 down-regulated by quercetin; format: cell-based, human
# Source text: as §3
# [12] = 0.2% of feed, 13 weeks orally; cited from earlier work
# [13] = control monolayers treated with quercetin
compound,measurement,setting,value
"CC(C)c1cccc(=O)cc1 [C2deOHino, C2-deoxy hinokitiol]",differentiation (staining of hemoglobinized cells with o-dianisidine),"DMT1-deficient MEL cells [1]; shDMT1 MEL cells, 72 hours",unable to restore physiology in any case
same,59Fe incorporation into heme,[2],no apparent effect
same,iron transport (release of iron from POPC liposomes),[3],ablated iron binding and transport; also recorded: does not bind or transport iron; also recorded: do not
same,hematocrit after one month of treatment,[4],low hematocrits normally observed for untreated b/b rats
same,iron binding,[5],ablated iron binding and transport; also recorded: does not bind or transport iron; also recorded: does not
same,55Fe uptake into cells,[6]; hinokitiol 500 nM,unable to promote uptake or transport
same,transepithelial 55Fe transport,[6]; hinokitiol 500 nM,unable to promote uptake or transport
same,55Fe incorporation into heme,[7],did not produce these effects
same,55Fe uptake,[7],did not produce these effects
same,hemoglobinization,[7],did not produce these effects
CO/C1=C\C(C)=C\[C@@H](C)[C@@H](O)[C@@H](C)C/C(C)=C/C=C/[C@H](OC)[C@@H]([C@@H](C)[C@@H](O)[C@H](C)[C@@]2(O)C[C@@H](O)[C@H](C)[C@@H](C(C)C)O2)OC1=O [bafilomycin],sensitivity of hino-rescued yeast to chemical inhibition,hino-rescued yeast,exceptionally sensitive
CC[C@H](C)C[C@H](C)CCCCCCCCC(=O)N[C@H]1C[C@@H](O)[C@@H](NCCN)NC(=O)[C@@H]2[C@@H](O)CCN2C(=O)[C@H]([C@H](O)CCN)NC(=O)[C@H]([C@H](O)[C@@H](O)c2ccc(O)cc2)NC(=O)[C@@H]2C[C@@H](O)CN2C(=O)[C@H]([C@@H](C)O)NC1=O [caspofungin],sensitivity of hino-rescued yeast to chemical inhibition,hino-rescued yeast,equi-sensitive
"Cc1c(O)c(=O)ccn1C [deferiprone, reference compound]",solubility in hexanes / partitioning into water,[8],partition primarily into water
same,55Fe uptake into cells,[6]; hinokitiol 500 nM,unable to promote uptake or transport
same,transepithelial 55Fe transport,[6]; hinokitiol 500 nM,unable to promote uptake or transport
"CC(C)c1cccc(=O)c(O)c1 [hinokitiol, 2-hydroxy-6-propan-2-ylcyclohepta-2,4,6-trien-1-one]",hemoglobinization,TMEM14CΔ,did not restore hemoglobinization
same,oral bioavailability in vivo suggested by permeability assays,Permeability assays,good oral bioavailability
same,pharmacokinetic half life,[9]; IP injection in F344 rats,reasonable pharmacokinetic half life
same,toxicity in healthy rats,"[9]; rat, in vivo",relatively non-toxic
same,cytosolic iron levels (calcein green),DMT1-deficient MEL cells [10],increased cytosolic and mitochondrial levels
same,endosomal iron levels (oxyburst green),DMT1-deficient MEL cells [10],decreased endosomal iron levels
same,mitochondrial iron levels (RPA),DMT1-deficient MEL cells [10],increased cytosolic and mitochondrial levels
same,differentiation without DMSO induction,DMT1-deficient MEL cells [1]; no DMSO induction,unable to promote differentiation without DMSO induction
same,differentiation (staining of hemoglobinized cells with o-dianisidine),"DMT1-deficient MEL cells [1]; shDMT1 MEL cells, 72 hours",restored differentiation
same,toxicity,"DMT1-deficient MEL cells [1]; shDMT1 MEL cells, 72 hours",without toxicity
same,hemolysis,[2]; at concentrations increasing heme incorporation,did not cause hemolysis
same,59Fe incorporation into heme,[2],increased ^59Fe incorporation into heme in a dose-dependent fashion; also recorded: restored incorporation of ^59Fe into heme
same,iron transport (release of iron from POPC liposomes),[3],confirmed; also recorded: promotes the release of iron from POPC liposomes
same,time over which hematocrit restoration was sustained,[4]; 0.2% in rat chow,> 2 months
same,hematocrit after one month of treatment,[4]; 100 mg/kg/day,restored hematocrit to b/b rats to levels that are no longer considered anemic; also recorded: restores hematocrit to non-anemic values
same,hematocrit after four weeks of treatment,"[4]; 0.2% of feed, ˜125 mg/kg each day",significant increases in hematocrit
same,iron binding,[5],confirmed; also recorded: binds iron
same,DMT1 expression after hinokitiol,[6],independent of DMT1 expression; also recorded: does not induce expression of DMT1
same,55Fe uptake as function of hinokitiol dosage,[6]; DMT1-deficient monolayers,proportional to the hinokitiol dosage
same,transepithelial 55Fe transport at high hinokitiol concentrations,[6]; DMT1-deficient monolayers,reduced when a high intracellular iron concentration is reached
same,basolateral to apical iron transport,[6]; basolateral addition of 55Fe and hinokitiol,failed to promote transport of iron from the basolateral to the apical side
same,monolayer integrity,[6]; hinokitiol 500 nM,without disrupting monolayer integrity
same,55Fe incorporation into ferritin,"[6]; immunoprecipitation of ferritin after apical 55Fe, DMT1-deficient monolayers",restored high incorporation of ^55Fe into ferritin
same,uptake and transport at range of pH,[6]; pHs observed throughout the duodenum,maintained at a range of pHs observed throughout the duodenum
same,55Fe uptake into cells,[6]; hinokitiol 500 nM,restored
same,transepithelial 55Fe transport,[6]; hinokitiol 500 nM,restored
same,time over which growth restoration can be sustained,[11]; continued reliance on hinokitiol,> 40 days
same,restoration of cell growth,[11]; fet3Δftr1Δ yeast,restored cell growth
same,growth level relative to wild type,"[11]; hinokitiol-treated fet3Δftr1Δ yeast, liquid media",grow to wild type levels
same,influx of 55Fe into cells,[11]; yeast,restoration of influx of ^55Fe into cells
same,55Fe incorporation into heme,[7],increases in ^55Fe uptake and incorporation into heme
same,55Fe uptake,[7],increases in ^55Fe uptake and incorporation into heme
same,hemoglobinization,[7],restored hemoglobinization
same,toxicity,J774 macrophages,without observable toxicity
same,release of intracellular iron,"J774 macrophages; J774 cells with 55Fe-transferrin, FPN1 down-regulated with hepcidin",released this intracellular iron back to normal levels in dose-dependent fashion
same,restoration of transepithelial transport in FPN1 down-regulated monolayers,FPN1; quercetin-treated monolayers plus hinokitiol,unable to restore transepithelial transport
same,lethality,[12],non-lethal
"Cc1ncc(CO)c(C=NNC(=O)c2ccncc2)c1O [pyridoxal isonicotinoyl hydrazone, reference compound]",55Fe uptake into cells,[6]; hinokitiol 500 nM,unable to promote uptake or transport
same,transepithelial 55Fe transport,[6]; hinokitiol 500 nM,unable to promote uptake or transport
O=c1c(O)c(-c2ccc(O)c(O)c2)oc2cc(O)cc(O)c12 [quercetin],transepithelial transport after FPN1 down-regulation,FPN1; [13],decreased transepithelial transport
same,uptake after FPN1 down-regulation,FPN1; [13],without affecting uptake
CC(C)c1cccc([O-])c(=O)c1.CC(C)c1cccc([O-])c(=O)c1.CC(C)c1cccc([O-])c(=O)c1.[Fe+3] [tris(hinacolato) iron (III)],partitioning of iron complex into octanol,[8],predominantly partitions into octanol
same,solubility in hexanes / partitioning into water,[8],soluble in hexanes
"hepcidin: key iron regulator, down-regulating FPN1 by promoting its degradation (DTHFPICIFCCGCCHRSKCGMCCKT; ends and bridges not checked; cysteine pairing not given here; UniProt P81172 60-84, looked up) [reference compound]",iron release after FPN1 down-regulation,"J774 macrophages; J774 cells with 55Fe-transferrin, presence of hepcidin",reduced iron release
